# Measurements: DBAASP
# Several values for one entry are separate records, joined by “and”; a condition that tells them apart may be missing. Equal entries are not always repeated.
# Legend:
# Test in all cases: ≥ marks a high value that may be exact or a test limit, other limits are often not marked, values filed in µg/mL are converted to µM
# [1] = test system: Bacillus subtilis ATCC 6633
# [2] = test system: Candida albicans ATCC 90112
# [3] = test system: Escherichia coli ATCC 25922
# [4] = test system: Micrococcus luteus ATCC 10240
# [5] = test system: Proteus mirabilis
# [6] = test system: Pseudomonas aeruginosa ATCC 27853
# [7] = test system: Staphylococcus aureus ATCC 25923
# [8] = test system: Staphylococcus epidermidis
# [9] = test system: Stenotrophomonas maltophilia ATCC 13637
# [10] = test system: Streptococcus pyogenes
# [11] = test system: Acholeplasma laidlawii A-EF22
# [12] = test system: Mycoplasma mycoides ssp. mycoides SC KH3J
# [13] = test system: Spiroplasma citri R8A2
# [14] = test system: Spiroplasma floricola BNR 1
# [15] = test system: Spiroplasma melliferum BC3
# [16] = test system: Acinetobacter calcoaceticus
# [17] = test system: Bacillus cereus ATCC 14579
# [18] = test system: Bacillus subtilis ATCC 23857
# [19] = test system: Candida albicans ATCC 1023
# [20] = test system: Candida albicans ATCC 90028
# [21] = test system: Candida albicans
# [22] = test system: Candida tropicalis
# [23] = test system: Cryptococcus neoformans ATCC 28957
# [24] = test system: Escherichia coli
# [25] = test system: Fusarium oxysporum
# [26] = test system: Fusarium solani
# [27] = test system: Pectobacterium carotovorum
# [28] = test system: Pseudomonas syringae pv. tabaci
# [29] = test system: Ramulariopsis gossypii
# [30] = test system: Rhizoctonia solani
# [31] = test system: Staphylococcus aureus ATCC 29313
# [32] = test system: Staphylococcus aureus
# [33] = test system: Streptococcus dysgalactiae
# [34] = test system: Streptococcus uberis
# [35] = test system: Trichoderma asperellum
# [36] = test system: Xanthomonas axonopodis pv. glycines ISBF 327
# [37] = test system: Xanthomonas campestris pv. citri
# [38] = test system: Candida albicans ATCC 36232
# [39] = test system: Micrococcus luteus ATCC 9341
# [40] = test system: Staphylococcus aureus ATCC 6538
# [41] = test system: Acinetobacter baumannii ATCC 17978
# [42] = test system: Escherichia coli KCTC 1682
# [43] = test system: Escherichia coli NCTC 12923
# [44] = test system: Klebsiella pneumoniae NCTC 13368
# [45] = test system: Pseudomonas aeruginosa CCARM 2095
# [46] = test system: Pseudomonas aeruginosa KCTC 1637
# [47] = test system: Pseudomonas aeruginosa NCTC 13437
# [48] = test system: Pseudomonas aeruginosa PAO1
# [49] = test system: Salmonella typhimurium KCTC 1926
# [50] = test system: Staphylococcus aureus ATCC 9144
# [51] = test system: Staphylococcus aureus CCARM 3001
# [52] = test system: Staphylococcus aureus CCARM 3543
# [53] = test system: Staphylococcus aureus KCTC 1621
# [54] = test system: Staphylococcus aureus USA 300
# [55] = test system: Staphylococcus epidermidis KCTC 1917
structure (smiles),measurement,setting,value
CC[C@H](C)[C@H](NC(=O)CNC(=O)[C@H](CCSC)NC(=O)[C@@H](NC(=O)[C@H](CC(=O)O)NC(=O)[C@@H](N)Cc1ccccc1)C(C)C)C(=O)N[C@H](C(=O)N[C@@H](CCCCN)C(=O)N[C@@H](CCCCN)C(=O)N[C@H](C(=O)N[C@@H](C)C(=O)N[C@@H](CO)C(=O)N[C@@H](C)C(=O)N[C@@H](CC(C)C)C(N)=O)[C@@H](C)CC)[C@@H](C)CC [FDVMGIIKKIASAL],MIC,[1],30 µM
same,MIC,[2],7.5 µM
same,MIC,[3],30 µM
same,MIC,[4],30 µM
same,MIC,[5],≥ 60 µM
same,MIC,[6],> 30 µM
same,MIC,[7],30 µM
same,MIC,[8],30 µM
same,MIC,[9],30 µM
same,MIC,[10],30 µM
CC(C)C[C@H](NC(=O)[C@H](CCCCN)NC(=O)[C@H](CC(C)C)NC(=O)[C@H](CC(C)C)NC(=O)[C@H](CC(C)C)NC(=O)[C@H](CCCCN)NC(=O)[C@H](CC(C)C)NC(=O)[C@H](CC(C)C)NC(=O)[C@H](CC(C)C)NC(=O)[C@H](CCCCN)NC(=O)[C@H](CC(C)C)NC(=O)[C@H](CC(C)C)NC(=O)[C@@H](N)CCCCN)C(=O)N[C@@H](Cc1c[nH]c2ccccc12)C(=O)N[C@@H](CCCCN)C(=O)O [KLLKLLLKLLLKLWK],MIC,[11],1.56 µM
same,MIC,[12],6.25 µM
same,MIC,[13],6.25 µM
same,MIC,[14],6.25 µM
same,MIC,[15],6.25 µM
CC[C@H](C)[C@H](NC(=O)[C@H](C)NC(=O)[C@H](C)NC(=O)[C@H](CCC(=O)O)NC(=O)[C@H](CCCCN)NC(=O)CNC(=O)[C@H](CCCCN)NC(=O)[C@H](CCC(N)=O)NC(=O)[C@H](CCCCN)NC(=O)[C@@H](NC(=O)[C@@H](NC(=O)[C@H](CO)NC(=O)[C@H](Cc1c[nH]c2ccccc12)NC(=O)[C@H](CC(C)C)NC(=O)CN)[C@@H](C)O)[C@@H](C)CC)C(=O)N[C@@H](C)C(=O)N[C@@H](C)C(=O)N[C@@H](C)C(=O)N[C@@H](CCCCN)C(=O)N[C@@H](C)C(=O)N[C@@H](C)C(=O)NCC(=O)N[C@@H](CCC(N)=O)C(=O)N[C@@H](C)C(=O)N[C@@H](C)C(=O)N[C@@H](CC(C)C)C(=O)NCC(=O)N[C@@H](C)C(=O)N[C@@H](CC(C)C)C(N)=O [GLWSTIKQKGKEAAIAAAKAAGQAALGAL],MIC,[16],25.7 µM
same,MIC,[17],16 µM
same,MIC,[18],1 µM
same,MIC,[19],5.7 µM
same,MIC,[20],4 µM
same,MIC,[21],5.7 µM
same,MIC,[22],0.37 µM
same,MIC,[23],8 µM
same,MIC,[24],6.42 µM
same,MIC,[25],16 µM
same,MIC,[26],16 µM
same,MIC,[27],0.5 µM
same,MIC,[28],1 µM
same,MIC,[29],8 µM
same,MIC,[30],≥ 64 µM
same,MIC,[7],3.2 µM and 8 µM
same,MIC,[31],11 µM
same,MIC,[32],12.8 µM and 5.7 µM
same,MIC,[33],5.7 µM
same,MIC,[34],5.7 µM
same,MIC,[35],8 µM
same,MIC,[36],1 µM
same,MIC,[37],0.5 µM
CC(C)[C@H](NC(=O)[C@H](CCCCN)NC(=O)[C@H](Cc1ccccc1)NC(=O)[C@@H](NC(=O)[C@@H](NC(=O)[C@H](CCCCN)NC(=O)[C@H](CCCCN)NC(=O)[C@@H](N)CCCCN)C(C)C)C(C)C)C(=O)N[C@@H](CCCCN)C(=O)N[C@@H](Cc1ccccc1)C(=O)N[C@@H](CCCCN)C(=O)N[C@@H](CCCCN)C(N)=O [KKKVVFKVKFKK],MIC,[38],4.15 µM and 2.08 µM
same,MIC,[39],2.08 µM
same,MIC,[40],2.08 µM
CC[C@H](C)[C@H](N)C(=O)N[C@@H](CC(C)C)C(=O)NCC(=O)N[C@@H](CCCCN)C(=O)N[C@H](C(=O)N[C@@H](Cc1c[nH]c2ccccc12)C(=O)N[C@@H](CCCCN)C(=O)N1CCC[C@H]1C(=O)N[C@H](C(=O)N[C@@H](CCCCN)C(=O)N[C@@H](CCCCN)C(=O)N[C@@H](CC(C)C)C(=O)N[C@@H](Cc1ccccc1)C(N)=O)[C@@H](C)CC)[C@@H](C)CC [ILGKIWKPIKKLF],MIC,[41],5.05 µM
same,MIC,[42],2 µM
same,MIC,[43],10.1 µM
same,MIC,[44],≥ 40.4 µM
same,MIC,[45],1 µM
same,MIC,[46],2 µM
same,MIC,[47],≥ 40.4 µM
same,MIC,[48],> 80.8 µM
same,MIC,[49],1 µM
same,MIC,[50],5.05 µM
same,MIC,[51],1 µM
same,MIC,[52],0.5 µM
same,MIC,[53],2 µM
same,MIC,[54],≥ 40.4 µM
same,MIC,[55],1 µM
